# US10765114B2, “4-amino-6-(pyridyl and 2-substitutedphenyl)-picolinates and 6-amino-2-(pyridyl and 2-substitutedphenyl)-pyrimidine-4-carboxylates and their use as herbicides” (Dow AgroSciences LLC, priority 2013, dated 2020)
# System: Key Grass and Sedge Weeds as well as Grass Crops
# Assay: Post-Emergent Test II (Table 6)
# Type: in vivo
# Settings: post-emergence, 336 h, CYPSS, 70 g ai/ha, 14 days after application, read-out: Visual Growth Reduction (%) 14 Days After Application CYPSS
# Summary of the method: (§1)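 Visual injury ratings (0 = no injury, 100 = complete kill) taken 14 days after treatment, relative to untreated controls. Compounds, in an acetone/DMSO aqueous carrier with crop oil and surfactant, were applied by track sprayer at 187 L/ha, in a twofold dilution series from the top rate, to plants at the first to second true-leaf stage.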
row,Compound,pest or weed control at 70 g/ha
1,"COC(=O)c1nc(-c2ccc(Cl)c(OC)c2C(F)F)cc(N)c1Cl [Compound 60, methyl 4-amino-3-chloro-6-(4-chloro-2-(difluoromethyl)-3-methoxyphenyl)picolinate]",30 to 44%

# Same assay, conditions: post-emergence, 336 h, CYPSS, 140 g ai/ha, 14 days after application, read-out: Visual Growth Reduction (%) 14 Days After Application CYPSS
row,Compound,pest or weed control at 140 g/ha
1,"COC(=O)c1nc(-c2ccc(Cl)c(OC)c2C(F)F)cc(N)c1Cl [Compound 60, methyl 4-amino-3-chloro-6-(4-chloro-2-(difluoromethyl)-3-methoxyphenyl)picolinate]",30 to 44%

# Same assay, conditions: post-emergence, 336 h, DIGSA: crabgrass (Digitaria sanguinalis), 70 g ai/ha, 14 days after application, read-out: Visual Growth Reduction (%) 14 Days After Application DIGSA
row,Compound,pest or weed control at 70 g/ha
1,"COC(=O)c1nc(-c2ccc(Cl)c(OC)c2C(F)F)cc(N)c1Cl [Compound 60, methyl 4-amino-3-chloro-6-(4-chloro-2-(difluoromethyl)-3-methoxyphenyl)picolinate]",0 to 29%

# Same assay, conditions: post-emergence, 336 h, DIGSA: crabgrass (Digitaria sanguinalis), 140 g ai/ha, 14 days after application, read-out: Visual Growth Reduction (%) 14 Days After Application DIGSA
row,Compound,pest or weed control at 140 g/ha
1,"COC(=O)c1nc(-c2ccc(Cl)c(OC)c2C(F)F)cc(N)c1Cl [Compound 60, methyl 4-amino-3-chloro-6-(4-chloro-2-(difluoromethyl)-3-methoxyphenyl)picolinate]",30 to 44%

# Same assay, conditions: post-emergence, 336 h, ECHSS, 70 g ai/ha, 14 days after application, read-out: Visual Growth Reduction (%) 14 Days After Application ECHSS
row,Compound,pest or weed control at 70 g/ha
1,"COC(=O)c1nc(-c2ccc(Cl)c(OC)c2C(F)F)cc(N)c1Cl [Compound 60, methyl 4-amino-3-chloro-6-(4-chloro-2-(difluoromethyl)-3-methoxyphenyl)picolinate]",0 to 29%

# Same assay, conditions: post-emergence, 336 h, ECHSS, 140 g ai/ha, 14 days after application, read-out: Visual Growth Reduction (%) 14 Days After Application ECHSS
row,Compound,pest or weed control at 140 g/ha
1,"COC(=O)c1nc(-c2ccc(Cl)c(OC)c2C(F)F)cc(N)c1Cl [Compound 60, methyl 4-amino-3-chloro-6-(4-chloro-2-(difluoromethyl)-3-methoxyphenyl)picolinate]",30 to 44%

# Same assay, conditions: post-emergence, 336 h, ORYSS (crop), 70 g ai/ha, 14 days after application, read-out: Visual Growth Reduction (%) 14 Days After Application ORYSS
row,Compound,pest or weed control at 70 g/ha
1,"COC(=O)c1nc(-c2ccc(Cl)c(OC)c2C(F)F)cc(N)c1Cl [Compound 60, methyl 4-amino-3-chloro-6-(4-chloro-2-(difluoromethyl)-3-methoxyphenyl)picolinate]",0 to 29%

# Same assay, conditions: post-emergence, 336 h, ORYSS (crop), 140 g ai/ha, 14 days after application, read-out: Visual Growth Reduction (%) 14 Days After Application ORYSS
row,Compound,pest or weed control at 140 g/ha
1,"COC(=O)c1nc(-c2ccc(Cl)c(OC)c2C(F)F)cc(N)c1Cl [Compound 60, methyl 4-amino-3-chloro-6-(4-chloro-2-(difluoromethyl)-3-methoxyphenyl)picolinate]",0 to 29%

# Same assay, conditions: post-emergence, 336 h, SETFA: giant foxtail (Setaria faberi), 70 g ai/ha, 14 days after application, read-out: Visual Growth Reduction (%) 14 Days After Application SETFA
row,Compound,pest or weed control at 70 g/ha
1,"COC(=O)c1nc(-c2ccc(Cl)c(OC)c2C(F)F)cc(N)c1Cl [Compound 60, methyl 4-amino-3-chloro-6-(4-chloro-2-(difluoromethyl)-3-methoxyphenyl)picolinate]",0 to 29%

# Same assay, conditions: post-emergence, 336 h, SETFA: giant foxtail (Setaria faberi), 140 g ai/ha, 14 days after application, read-out: Visual Growth Reduction (%) 14 Days After Application SETFA
row,Compound,pest or weed control at 140 g/ha
1,"COC(=O)c1nc(-c2ccc(Cl)c(OC)c2C(F)F)cc(N)c1Cl [Compound 60, methyl 4-amino-3-chloro-6-(4-chloro-2-(difluoromethyl)-3-methoxyphenyl)picolinate]",0 to 29%

# Same assay, conditions: post-emergence, 336 h, SORVU: grain sorghum (Sorghum vulgare), 70 g ai/ha, 14 days after application, read-out: Visual Growth Reduction (%) 14 Days After Application SORVU
row,Compound,pest or weed control at 70 g/ha
1,"COC(=O)c1nc(-c2ccc(Cl)c(OC)c2C(F)F)cc(N)c1Cl [Compound 60, methyl 4-amino-3-chloro-6-(4-chloro-2-(difluoromethyl)-3-methoxyphenyl)picolinate]",0 to 29%

# Same assay, conditions: post-emergence, 336 h, SORVU: grain sorghum (Sorghum vulgare), 140 g ai/ha, 14 days after application, read-out: Visual Growth Reduction (%) 14 Days After Application SORVU
row,Compound,pest or weed control at 140 g/ha
1,"COC(=O)c1nc(-c2ccc(Cl)c(OC)c2C(F)F)cc(N)c1Cl [Compound 60, methyl 4-amino-3-chloro-6-(4-chloro-2-(difluoromethyl)-3-methoxyphenyl)picolinate]",45 to 59%

# Same assay, conditions: post-emergence, 336 h, TRZSS (crop), 70 g ai/ha, 14 days after application, read-out: Visual Growth Reduction (%) 14 Days After Application TRZSS
row,Compound,pest or weed control at 70 g/ha
1,"COC(=O)c1nc(-c2ccc(Cl)c(OC)c2C(F)F)cc(N)c1Cl [Compound 60, methyl 4-amino-3-chloro-6-(4-chloro-2-(difluoromethyl)-3-methoxyphenyl)picolinate]",0 to 29%

# Same assay, conditions: post-emergence, 336 h, TRZSS (crop), 140 g ai/ha, 14 days after application, read-out: Visual Growth Reduction (%) 14 Days After Application TRZSS
row,Compound,pest or weed control at 140 g/ha
1,"COC(=O)c1nc(-c2ccc(Cl)c(OC)c2C(F)F)cc(N)c1Cl [Compound 60, methyl 4-amino-3-chloro-6-(4-chloro-2-(difluoromethyl)-3-methoxyphenyl)picolinate]",0 to 29%

# Same assay, conditions: post-emergence, 336 h, ZEAMX: maize, corn (Zea mays), 70 g ai/ha, 14 days after application, read-out: Visual Growth Reduction (%) 14 Days After Application ZEAMX
row,Compound,pest or weed control at 70 g/ha
1,"COC(=O)c1nc(-c2ccc(Cl)c(OC)c2C(F)F)cc(N)c1Cl [Compound 60, methyl 4-amino-3-chloro-6-(4-chloro-2-(difluoromethyl)-3-methoxyphenyl)picolinate]",0 to 29%

# Same assay, conditions: post-emergence, 336 h, ZEAMX: maize, corn (Zea mays), 140 g ai/ha, 14 days after application, read-out: Visual Growth Reduction (%) 14 Days After Application ZEAMX
row,Compound,pest or weed control at 140 g/ha
1,"COC(=O)c1nc(-c2ccc(Cl)c(OC)c2C(F)F)cc(N)c1Cl [Compound 60, methyl 4-amino-3-chloro-6-(4-chloro-2-(difluoromethyl)-3-methoxyphenyl)picolinate]",0 to 29%

# System: Key Broadleaf Weed and Crop Species
# Assay: Post-Emergent Test II (Table 5)
# Type: in vivo
# Settings: Abutilon theophrasti, post-emergence, 336 h, ABUTH: velvetleaf (Abutilon theophrasti), application rate 70 (kg ai/ha; footnote: g ai/ha), read-out: Visual Growth Reduction (%) 14 Days After Application ABUTH
# Summary of the method: as §1
row,Compound,pest or weed control at 70 g/ha
1,"COC(=O)c1nc(-c2ccc(Cl)c(OC)c2C(F)F)cc(N)c1Cl [Compound 60, methyl 4-amino-3-chloro-6-(4-chloro-2-(difluoromethyl)-3-methoxyphenyl)picolinate]",95 to 100%

# Same assay, conditions: Abutilon theophrasti, post-emergence, 336 h, ABUTH: velvetleaf (Abutilon theophrasti), application rate 140 (kg ai/ha; footnote: g ai/ha), read-out: Visual Growth Reduction (%) 14 Days After Application ABUTH
row,Compound,pest or weed control at 140 g/ha
1,"COC(=O)c1nc(-c2ccc(Cl)c(OC)c2C(F)F)cc(N)c1Cl [Compound 60, methyl 4-amino-3-chloro-6-(4-chloro-2-(difluoromethyl)-3-methoxyphenyl)picolinate]",95 to 100%

# Same assay, conditions: Amaranthus retroflexus, post-emergence, 336 h, AMARE: redroot pigweed (Amaranthus retroflexus), application rate 70 (kg ai/ha; footnote: g ai/ha), read-out: Visual Growth Reduction (%) 14 Days After Application AMARE
row,Compound,pest or weed control at 70 g/ha
1,"COC(=O)c1nc(-c2ccc(Cl)c(OC)c2C(F)F)cc(N)c1Cl [Compound 60, methyl 4-amino-3-chloro-6-(4-chloro-2-(difluoromethyl)-3-methoxyphenyl)picolinate]",95 to 100%

# Same assay, conditions: Amaranthus retroflexus, post-emergence, 336 h, AMARE: redroot pigweed (Amaranthus retroflexus), application rate 140 (kg ai/ha; footnote: g ai/ha), read-out: Visual Growth Reduction (%) 14 Days After Application AMARE
row,Compound,pest or weed control at 140 g/ha
1,"COC(=O)c1nc(-c2ccc(Cl)c(OC)c2C(F)F)cc(N)c1Cl [Compound 60, methyl 4-amino-3-chloro-6-(4-chloro-2-(difluoromethyl)-3-methoxyphenyl)picolinate]",95 to 100%

# Same assay, conditions: Brassica napus, post-emergence, 336 h, BRSSS: oilseed rape, canola (Brassica napus), application rate 70 (kg ai/ha; footnote: g ai/ha), read-out: Visual Growth Reduction (%) 14 Days After Application BRSSS
row,Compound,pest or weed control at 70 g/ha
1,"COC(=O)c1nc(-c2ccc(Cl)c(OC)c2C(F)F)cc(N)c1Cl [Compound 60, methyl 4-amino-3-chloro-6-(4-chloro-2-(difluoromethyl)-3-methoxyphenyl)picolinate]",60 to 74%

# Same assay, conditions: Brassica napus, post-emergence, 336 h, BRSSS: oilseed rape, canola (Brassica napus), application rate 140 (kg ai/ha; footnote: g ai/ha), read-out: Visual Growth Reduction (%) 14 Days After Application BRSSS
row,Compound,pest or weed control at 140 g/ha
1,"COC(=O)c1nc(-c2ccc(Cl)c(OC)c2C(F)F)cc(N)c1Cl [Compound 60, methyl 4-amino-3-chloro-6-(4-chloro-2-(difluoromethyl)-3-methoxyphenyl)picolinate]",75 to 84%

# Same assay, conditions: Chenopodium album, post-emergence, 336 h, CHEAL: lambsquarters (Chenopodium album), application rate 70 (kg ai/ha; footnote: g ai/ha), read-out: Visual Growth Reduction (%) 14 Days After Application CHEAL
row,Compound,pest or weed control at 70 g/ha
1,"COC(=O)c1nc(-c2ccc(Cl)c(OC)c2C(F)F)cc(N)c1Cl [Compound 60, methyl 4-amino-3-chloro-6-(4-chloro-2-(difluoromethyl)-3-methoxyphenyl)picolinate]",95 to 100%

# Same assay, conditions: Chenopodium album, post-emergence, 336 h, CHEAL: lambsquarters (Chenopodium album), application rate 140 (kg ai/ha; footnote: g ai/ha), read-out: Visual Growth Reduction (%) 14 Days After Application CHEAL
row,Compound,pest or weed control at 140 g/ha
1,"COC(=O)c1nc(-c2ccc(Cl)c(OC)c2C(F)F)cc(N)c1Cl [Compound 60, methyl 4-amino-3-chloro-6-(4-chloro-2-(difluoromethyl)-3-methoxyphenyl)picolinate]",95 to 100%

# Same assay, conditions: Euphorbia heterophylla, post-emergence, 336 h, EPHHL: wild poinsettia (Euphorbia heterophylla), application rate 70 (kg ai/ha; footnote: g ai/ha), read-out: Visual Growth Reduction (%) 14 Days After Application EPHHL
row,Compound,pest or weed control at 70 g/ha
1,"COC(=O)c1nc(-c2ccc(Cl)c(OC)c2C(F)F)cc(N)c1Cl [Compound 60, methyl 4-amino-3-chloro-6-(4-chloro-2-(difluoromethyl)-3-methoxyphenyl)picolinate]",60 to 74%

# Same assay, conditions: Euphorbia heterophylla, post-emergence, 336 h, EPHHL: wild poinsettia (Euphorbia heterophylla), application rate 140 (kg ai/ha; footnote: g ai/ha), read-out: Visual Growth Reduction (%) 14 Days After Application EPHHL
row,Compound,pest or weed control at 140 g/ha
1,"COC(=O)c1nc(-c2ccc(Cl)c(OC)c2C(F)F)cc(N)c1Cl [Compound 60, methyl 4-amino-3-chloro-6-(4-chloro-2-(difluoromethyl)-3-methoxyphenyl)picolinate]",60 to 74%

# Same assay, conditions: Helianthus annuus, post-emergence, 336 h, HELAN: sunflower (Helianthus annuus), application rate 70 (kg ai/ha; footnote: g ai/ha), read-out: Visual Growth Reduction (%) 14 Days After Application HELAN
row,Compound,pest or weed control at 70 g/ha
1,"COC(=O)c1nc(-c2ccc(Cl)c(OC)c2C(F)F)cc(N)c1Cl [Compound 60, methyl 4-amino-3-chloro-6-(4-chloro-2-(difluoromethyl)-3-methoxyphenyl)picolinate]",85 to 94%

# Same assay, conditions: Helianthus annuus, post-emergence, 336 h, HELAN: sunflower (Helianthus annuus), application rate 140 (kg ai/ha; footnote: g ai/ha), read-out: Visual Growth Reduction (%) 14 Days After Application HELAN
row,Compound,pest or weed control at 140 g/ha
1,"COC(=O)c1nc(-c2ccc(Cl)c(OC)c2C(F)F)cc(N)c1Cl [Compound 60, methyl 4-amino-3-chloro-6-(4-chloro-2-(difluoromethyl)-3-methoxyphenyl)picolinate]",85 to 94%

# Same assay, conditions: Viola tricolor, post-emergence, 336 h, VIOTR: wild pansy (Viola tricolor), application rate 70 (kg ai/ha; footnote: g ai/ha), read-out: Visual Growth Reduction (%) 14 Days After Application VIOTR
row,Compound,pest or weed control at 70 g/ha
1,"COC(=O)c1nc(-c2ccc(Cl)c(OC)c2C(F)F)cc(N)c1Cl [Compound 60, methyl 4-amino-3-chloro-6-(4-chloro-2-(difluoromethyl)-3-methoxyphenyl)picolinate]",30 to 44%

# Same assay, conditions: Viola tricolor, post-emergence, 336 h, VIOTR: wild pansy (Viola tricolor), application rate 140 (kg ai/ha; footnote: g ai/ha), read-out: Visual Growth Reduction (%) 14 Days After Application VIOTR
row,Compound,pest or weed control at 140 g/ha
1,"COC(=O)c1nc(-c2ccc(Cl)c(OC)c2C(F)F)cc(N)c1Cl [Compound 60, methyl 4-amino-3-chloro-6-(4-chloro-2-(difluoromethyl)-3-methoxyphenyl)picolinate]",30 to 44%
